Assays:
KRAS G12C-BRAF complex = KRAS G12C-BRAF complex (Homo sapiens (Human), UniProt P01116+P62937, G12C); assay: KRAS-BRAF with CYPA (500 nM) interaction assay (TR-FRET, Example 136); assay type: biochemical; details: KRAS G12C-BRAF disruption
Protocol: In this example, TR-FRET was also used to measure the compound or compound-CYPA dependent disruption of the KRAS G12C-BRAF complex. This protocol was also used to measure disruption of KRAS G12D or KRAS G12V binding to BRAF by a compound of the invention, respectively. In assay buffer containing 25 mM HEPES PH=7.4 (4-(2-hydroxyethyl)-1-piperazineethanesulfonic acid, Thermo, 15630080), 0.002% Tween20, 0.1% BSA, 100 mM NaCl, 5 mM MgCl2, 10 μM GMPPNP (Guanosine 5′-[β,γ-imido]triphosphate trisodium salt hydrate, Sigma, G0635), […] 384-well assay plate at final concentrations of 50 nM, 6.25 nM and 1 nM, respectively. Compound was present in plate wells as a 16-point 3-fold dilution series starting at a final concentration of 10 μM and incubated for 3 hours. A mixture of MAb Anti-6His-XL665 (Cisbio, 61HISXLB) and Mab anti-GST-TB cryptate (Cisbio, 61GSTTLB) was then added at a final concentration of 6.67 nM and 0.21 nM, respectively, and the plate was incubated for an additional 1.5 hours. TR-FRET signal was read on a PHERstar FSX microplate reader (Ex320 nm, Em 665/615 nm). Compounds that facilitate disruption of the KRAS-BRAF complex were identified as those eliciting a decrease in the TR-FRET ratio relative to DMSO control wells.

SW620 cells (KRAS G12V) = assay: Cell viability assay (Cell Counting Kit-8, 3-day); assay type: cell-based, human; details: Homo sapiens, SW-620; SW620, 72 hrs incubation
How it was run: (§1)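 IC50 derived by 4-parameter sigmoidal fit of CCK-8 signal (OD450−OD650, 2 h development) after 72 h compound exposure in 0.5% DMSO. Seeding density was 5,000 cells/well for NCI-H358 and 2,000 cells/well for AGS and SW620, plated overnight before dosing.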

[1] = system: NCI-H358 cells (KRAS G12C); assay: Cell viability assay (Cell Counting Kit-8, 3-day); assay type: cell-based, human; details: Homo sapiens, NCI-H358, 72 h, NCI-H358, 72 hrs incubation
How it was run: as §1

AGS cells (KRAS G12D) = assay: Cell viability assay (Cell Counting Kit-8, 3-day); assay type: cell-based, human; details: Homo sapiens, 72 h, 72 hrs incubation
How it was run: as §1

[2] = system: phosphorylation of ERK, KRAS G12V in SW620; assay: pERK inhibition assay; assay type: cell-based; details: Homo sapiens, SW-620, 4 h, SW620 cells
How it was run: (§2)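 Phospho-ERK quantified by in-cell ELISA with TMB read-out at OD450 following 4 h compound exposure (final 0.5% DMSO). Cell lines were SW620 (KRAS G12V), AGS (G12D) and NCI-H358 (G12C), grown in RPMI-1640 with 10% FBS. A 4-parameter sigmoidal model gave the IC50.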

[3] = system: phosphorylation of ERK, KRAS G12D in AGS cells; assay: pERK inhibition assay; assay type: cell-based; details: Homo sapiens, AGS, 4 h
How it was run: as §2

[4] = system: phosphorylation of ERK, KRAS G12C in NCI-H358 cells; assay: pERK inhibition assay; assay type: cell-based; details: Homo sapiens, NCI-H358, 4 h
How it was run: as §2

Sequence of KRAS G12C-BRAF complex (P01116-2 other isoform, or with tags, fused parts or gaps G12C): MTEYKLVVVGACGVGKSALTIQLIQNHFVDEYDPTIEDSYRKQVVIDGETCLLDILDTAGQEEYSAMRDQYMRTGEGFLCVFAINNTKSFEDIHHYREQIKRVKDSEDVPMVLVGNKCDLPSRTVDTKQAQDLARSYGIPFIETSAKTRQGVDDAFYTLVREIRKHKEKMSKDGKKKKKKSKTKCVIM
Sequence of KRAS G12C-BRAF complex (P62937 whole entry): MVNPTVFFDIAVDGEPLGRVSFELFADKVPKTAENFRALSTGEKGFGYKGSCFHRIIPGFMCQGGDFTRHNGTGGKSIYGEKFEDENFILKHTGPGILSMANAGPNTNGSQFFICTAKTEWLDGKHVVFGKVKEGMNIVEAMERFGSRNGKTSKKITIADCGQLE

Row | Compound | IC50 (KRAS G12C-BRAF complex) [nM] | IC50 (SW620 cells (KRAS G12V)) [nM] | IC50 [1] [nM] | IC50 (AGS cells (KRAS G12D)) [nM] | IC50 [2] [nM] | IC50 [3] [nM] | IC50 [4] [nM]
1 | CO[C@@H](C)c1ncc(N2CCN(C)CC2)cc1-c1c2c3cc(cc4c3n1CCC4)-c1csc(n1)C[C@H](NC(=O)[C@H]1C[C@@H]1c1ccncn1)C(=O)N1CCC[C@H](N1)C(=O)OCC(C)(C)C2 (atropisomer, axis not shown; (M)) [Example 50, (1S,2S)-N-[(7S,13S)-(20M)-20-[2-[(1S)-1-methoxyethyl]-5-(4-methylpiperazin-1-yl)-3-pyridyl]-17,17-dimethyl-8,14-dioxo-15-oxa-4-thia-9,21,30,31-tetrazahexacyclo[23.3.1.1^2,5.1^9,13.0^19,27.0^21,26]hentriaconta-1 (28),2,5 (31), 19,25 (29),26-hexaen-7-yl]-2-pyrimidin-4-yl-cyclopropanecarboxamide] | 22 | 3.8 | 24.1 | 72.6 | 2.4 | 20.1 | 3.5
2 | CO[C@@H](C)c1ncc(N2CCN(CC(F)(F)F)CC2)cc1-c1c2c3cc(cc4c3n1CCO4)-c1csc(n1)C[C@H](NC(=O)[C@H]1C[C@@H]1c1cccnc1)C(=O)N1CCC[C@H](N1)C(=O)OCC(C)(C)C2 (atropisomer, axis not shown; (M)) [Example 98, (1S,2S)-N-[(7S,13S)-(20M)-20-[2-[(1S)-1-methoxyethyl]-5-[4-(2,2,2-trifluoroethyl)piperazin-1-yl]-3-pyridyl]-17,17-dimethyl-8,14-dioxo-15,24-dioxa-4-thia-9,21,30,31-2,5 9,13 19,27 21,26]hentriaconta-1 (28),2,5 (31),19,25 (29),26-hexaen-tetrazahexacyclo[23.3.1.1″>0.1″>7-yl]-2-(3-pyridyl)cyclopropanecarboxamide] | 11.1 | 0.6 | 4 | 8.1 | 0.5 | 4.6 | 0.9
3 | CO[C@@H](C)c1ncc(N2CCOCC2)cc1-c1c2c3cc(cc4c3n1CCO4)-c1csc(n1)C[C@H](NC(=O)[C@H]1C[C@@H]1c1cccnc1)C(=O)N1CCC[C@H](N1)C(=O)OCC(C)(C)C2 (atropisomer, axis not shown; (M)) [Example 97, (1S,2S)-N-[(7S,13S)-(20M)-20-[2-[(1S)-1-methoxyethyl]-5-morpholino-3-pyridyl]-17,17-dimethyl-8,14-dioxo-15,24-dioxa-4-thia-9,21,30,31-tetrazahexacyclo[23.3.1.12.19,13 019,27 21,26,]hentriaconta-1 (28),2,5 (31), 19,25 (29),26-hexaen-7-yl]-2-(3-pyridyl)cyclopropanecarboxamide] | 14.4 | 0.3 | 1.9 | 2.6 | 0.3 | 1.4 | 0.4
4 | CO[C@@H](C)c1ncc(N2CCOCC2)cc1-c1c2c3cc(cc4c3n1CCO4)-c1csc(n1)C[C@H](NC(=O)[C@H]1C[C@@H]1C(F)F)C(=O)N1CCC[C@H](N1)C(=O)OCC(C)(C)C2 (atropisomer, axis not shown; (M)) [Example 9, (1S,2S)-2-(difluoromethyl)-N-[(7S,13S)-(20M)-20-[2-[(1S)-1-methoxyethyl]-5-morpholino-3-pyridyl]-17,17-dimethyl-8,14-dioxo-15,24-dioxa-4-thia-9,21,30,31-tetrazahexacyclo[23.3.1.1^2,5.1^9,13.0^19,27.0^21,26]hentriaconta-1 (28),2,5 (31), 19,25 (29),26-hexaen-7-yl]cyclopropanecarboxamide] | 21.1 | < 0.6 | 2.8 | 7.6 | 0.8 | 1.8 | 2.3
5 | CO[C@@H](C)c1ncc(N2CCN(C)CC2)cc1-c1c2c3cc(cc4c3n1CCO4)-c1csc(n1)C[C@H](NC(=O)C1CC1c1ccc(F)cc1)C(=O)N1CCC[C@H](N1)C(=O)OCC(C)(C)C2 (stereo partly drawn) [Example 59, 2-(4-fluorophenyl)-N-[(7S,13S)-(20M)-20-[2-[(1S)-1-methoxyethyl]-5-(4-methylpiperazin-1-yl)-3-pyridyl]-17,17-dimethyl-8,14-dioxo-15,24-dioxa-4-thia-9,21,30,31-tetrazahexacyclo[23.3.1.1^2,5.1^9,13.0^19,27.0^21,26]hentriaconta-1 (29),2,5 (31),19,25,27-hexaen-7-yl]cyclopropanecarboxamide] | 16.7 | 7.4 | 33.7 | 87.2 | 3 | 21.3 | 8.8
6 | CO[C@@H](C)c1ncc(N2CCN(CC(F)(F)F)CC2)cc1-c1c2c3cc(cc4c3n1CC(F)(F)C4)-c1csc(n1)C[C@H](NC(=O)[C@H]1[C@H](C)[C@@H]1C)C(=O)N1CCC[C@H](N1)C(=O)OCC(C)(C)C2 (atropisomer, axis not shown; (M)) [Example 87, (1r,2S,3R)-N-[(7S,13S)-23,23-difluoro-(20M)-20-[2-[(1S)-1-methoxyethyl]-5-[4-(2,2,2-trifluoroethyl)piperazin-1-yl]-3-pyridyl]-17,17-dimethyl-8,14-dioxo-15-oxa-4-thia-9,21,30,31-tetrazahexacyclo[23.3.1.1^2,5.1^9,13.0^19,27.0^21,26]hentriaconta-1 (28),2,5 (31),19,25 (29),26-hexaen-7-yl]-2,3-dimethyl-cyclopropanecarboxamide] | 32.6 | 4 | 30 | 58 | 1.5 | 40.6 | 4.8
7 | CO[C@@H](C)c1ncc(N2CCN(C)CC2)cc1-c1c2c3cc(cc4c3n1CCC4)-c1csc(n1)C[C@H](NC(=O)[C@H]1[C@@H]3CC(F)(F)C[C@@H]31)C(=O)N1CCC[C@H](N1)C(=O)OCC(C)(C)C2 (atropisomer, axis not shown; (M)) [Example 48, (1S,5R)-3,3-difluoro-N-[(7S,13S)-(20M)-20-[2-[(1S)-1-methoxyethyl]-5-(4-methylpiperazin-1-yl)-3-pyridyl]-17,17-dimethyl-8,14-dioxo-15-oxa-4-thia-9,21,30,31-tetrazahexacyclo[23.3.1.1^2,5.1^9,13.0^19,27.0^21,26]hentriaconta-1 (28),2,5 (31), 19,25 (29),26-hexaen-7-yl]bicyclo[3.1.0]hexane-6-carboxamide] | 4.4 | 1.7 | 9.5 | 26.5 | 1 | 10.1 | 1.2
8 | CO[C@@H](C)c1ncc(N2CCN3CCCC[C@@H]3C2)cc1-c1c2c3cc(cc4c3n1CCC4)-c1csc(n1)C[C@H](NC(=O)[C@H]1C[C@@H]1C)C(=O)N1CCC[C@H](N1)C(=O)OCC(C)(C)C2 (atropisomer, axis not shown; (M)) [Example 49, (1S,2S)-N-[(7S,13S)-(20M)-20-[5-[(9αR)-1,3,4,6,7,8,9,9a-octahydropyrido[1,2-a]pyrazin-2-yl]-2-[(1S)-1-methoxyethyl]-3-pyridyl]-17,17-dimethyl-8,14-dioxo-15-oxa-4-thia-9,21,30,31-tetrazahexacyclo[23.3.1.1^2,5.1^9,13.0^19,27.0^21,26]hentriaconta-1 (28),2,5 (31), 19,25 (29),26-hexaen-7-yl]-2-methyl-cyclopropanecarboxamide] | 17.5 | 1.7 | 9.7 | 29.1 | 1.3 | 13.7 | 2.4
